Measured values reported in patent publication US20260092179A1, “GENETICALLY MODIFIED HOST CELLS PRODUCING VIOLACEIN, ANALOGUES, AND DERIVATIVES THEREOF” (OCTARINE BIO APS, priority 2022, published 2026).
Values after ≈ are worked out from the molar mass of the structure shown.

Key:
Type in all cases: physicochemical
[1] = Solubility of violacein in 100% methanol (stock solutions); conditions: organic solvent or mixture, read-out: soluble in 100% methanol
Description: In Example 7, S. cerevisiae was engineered to produce violacein and 3 other violacein derivatives (deoxyviolacein, proviolacein, and prodeoxyviolacein). However, during cultivation experiments a number of issues were observed. […] On agar plate we also observed a number of colonies losing their colour, indicating rapid selection against the introduced biosynthetic pathway. […] Issues with toxicity, solubility, and product export have significant negative effects on production of these compounds and limit the commercial viability. To overcome these issues, we investigated whether glycosylation of the compounds could provide a positive impact and improve production. Because violacein and violacein derivatives are not naturally glycosylated, we first sought to identify heterologous glycosyltransferase enzymes displaying promiscuous activity towards these compounds by running a series of in vitro glycosyltransferase enzyme assays using violacein and violacein derivatives as substrate

[2] = Stability during laundering of dyed fabrics (colour fastness, ΔE); conditions: washed at 30° c.
Method: (§1) In order to assess the stability and colour fastness of violacein and violacein derivatives dyed onto fabrics, dyed fabrics were subjected to a number of conditions. Fabrics were dyed according to Example 18 and colour coordinates and colour change before and after exposure to a given condition were determined as described in Example 18. To measure temperature stability, fabrics were incubated in an oven set to 80° c. for 4 h. To measure stability under acid and alkaline conditions, fabrics were fully submerged in water solutions set to pH 8 with NaOH and pH 5 with HCl and incubated at room temperature for 30 minutes. Fabrics were then incubated at 37° c. for 4 h. To measure stability during laundering, fabrics were washed at 30° c. under the “mix” setting of a Siemens IQ300 washing machine, then dried in a Siemens IQ300 dryer until dry. To measure artificial light stability, fabrics were placed under an LED lamp at room temperature for 16 h. To measure UV light stability, fabrics were placed under a UV lamp at room temperature for 1 h.

[3] = Temperature stability of dyed fabrics (colour fastness, ΔE); conditions: oven 80° c. for 4 h; for ΔE: before and after the stability test
Method: as §1

- solubility [1]: 5 mM (≈ 1720 µg/mL)
- L ([2]; Acrylic, After test): 76.54
- a ([2]; Acrylic, After test): 1.43
- b ([2]; Acrylic, After test): 1.73
- L ([2]; Acrylic, Before test): 62.97
- a ([2]; Acrylic, Before test): 2.52
- b ([2]; Acrylic, Before test): 0.79
- ΔE ([2]; Acrylic, before and after the stability test): 13.65
- L ([2]; Bleached cotton, After test): 67.09
- a ([2]; Bleached cotton, After test): 2.56
- b ([2]; Bleached cotton, After test): −9.43
- L ([2]; Bleached cotton, Before test): 59.44
- a ([2]; Bleached cotton, Before test): 2.08
- b ([2]; Bleached cotton, Before test): −7.15
- ΔE ([2]; Bleached cotton, before and after the stability test): 8.00
- L ([2]; Diacetate, After test): 48.28
- a ([2]; Diacetate, After test): 7.64
- b ([2]; Diacetate, After test): −12.1
- L ([2]; Diacetate, Before test): 44.66
- a ([2]; Diacetate, Before test): 6.86
- b ([2]; Diacetate, Before test): −11.23
- ΔE ([2]; Diacetate, before and after the stability test): 3.80
- L ([2]; Nylon 6,6, After test): 36.95
- a ([2]; Nylon 6,6, After test): 5.38
- b ([2]; Nylon 6,6, After test): −21.45
- L ([2]; Nylon 6,6, Before test): 34.78
- a ([2]; Nylon 6,6, Before test): 4.7
- b ([2]; Nylon 6,6, Before test): −19.46
- ΔE ([2]; Nylon 6,6, before and after the stability test): 3.02
- L ([2]; Polyester, After test): 78.67
- a ([2]; Polyester, After test): 0.26
- b ([2]; Polyester, After test): 0.27
- L ([2]; Polyester, Before test): 69.07
- a ([2]; Polyester, Before test): 1.41
- b ([2]; Polyester, Before test): −0.67
- ΔE ([2]; Polyester, before and after the stability test): 9.71
- L ([2]; Wool, After test): 73.9
- a ([2]; Wool, After test): 1.48
- b ([2]; Wool, After test): 1.8
- L ([2]; Wool, Before test): 66.17
- a ([2]; Wool, Before test): 1.43
- b ([2]; Wool, Before test): 0.12
- ΔE ([2]; Wool, before and after the stability test): 7.91
- L ([3]; Acrylic, After test): 62.99
- a ([3]; Acrylic, After test): 2.58
- b ([3]; Acrylic, After test): −1.01
- L ([3]; Acrylic, Before test): 64.83
- a ([3]; Acrylic, Before test): 1.28
- b ([3]; Acrylic, Before test): 1.7
- ΔE ([3]; Acrylic): 3.52
- L ([3]; Bleached cotton, After test): 59.33
- a ([3]; Bleached cotton, After test): 3.72
- b ([3]; Bleached cotton, After test): −8.18
- L ([3]; Bleached cotton, Before test): 60.51
- a ([3]; Bleached cotton, Before test): 2.66
- b ([3]; Bleached cotton, Before test): −6.54
- ΔE ([3]; Bleached cotton): 2.28
- L ([3]; Diacetate, After test): 41.38
- a ([3]; Diacetate, After test): 10.6
- b ([3]; Diacetate, After test): −12.61
- L ([3]; Diacetate, Before test): 43.1
- a ([3]; Diacetate, Before test): 8.4
- b ([3]; Diacetate, Before test): −12.5
- ΔE ([3]; Diacetate): 2.79
- L ([3]; Nylon 6,6, After test): 33.74
- a ([3]; Nylon 6,6, After test): 5.53
- b ([3]; Nylon 6,6, After test): −19.85
- L ([3]; Nylon 6,6, Before test): 34.91
- a ([3]; Nylon 6,6, Before test): 5
- b ([3]; Nylon 6,6, Before test): −20.42
- ΔE ([3]; Nylon 6,6): 1.41
- L ([3]; Polyester, After test): 67.81
- a ([3]; Polyester, After test): 4.37
- b ([3]; Polyester, After test): −3.55
- L ([3]; Polyester, Before test): 68.98
- a ([3]; Polyester, Before test): 3.25
- b ([3]; Polyester, Before test): −1.56
- ΔE ([3]; Polyester): 2.57
- L ([3]; Wool, After test): 67.34
- a ([3]; Wool, After test): 1.87
- b ([3]; Wool, After test): −0.17
- L ([3]; Wool, Before test): 67
- a ([3]; Wool, Before test): 1.5
- b ([3]; Wool, Before test): 0.36
- ΔE ([3]; Wool): 0.73
SMILES: O=C1NC(c2c[nH]c3ccc(O)cc23)=C/C1=C1\C(=O)Nc2ccccc21 [violacein]
